Measurements as given in the NIST ThermoML archive (doi:10.1016/j.fluid.2017.07.024).

Assays:
[1] = wn = mass fraction of the nth substance listed; settings: 101 kPa, Liquid, Capillary tube (Ostwald / Ubbelohde) method, w1 = 0.9
[2] = molar heat capacity at constant pressure; settings: 101 kPa, Power-Compensation Calorimetry
[3] = Liquid, Closed cell (Static) method

CCCCn1cc[n+](C)c1.[Br-] [1-butyl-3-methylimidazolium bromide] + O
[1]
Settings | kinematic viscosity [m2/s]
313.15 K | 2.21e-05
323.15 K | 1.56e-05
333.15 K | 1.14e-05
343.15 K | 8.58e-06
353.15 K | 6.65e-06
363.15 K | 5.34e-06
373.15 K | 4.34e-06

CCCCn1cc[n+](C)c1.[Br-] [1-butyl-3-methylimidazolium bromide]
molar heat capacity at constant pressure [J/K/mol], [2]
Settings | 283.15 K | 293.15 K | 303.15 K | 313.15 K | 323.15 K | 333.15 K | 343.15 K | 353.15 K | 363.15 K | 373.15 K
Crystal | 265.14 | 269.52 | 276.09 | 289.24 | 308.96 | 361.55 | 705.57 | – | – | –
Liquid | – | – | – | – | – | – | – | 352.79 | 359.36 | 363.74

O [water]
[3]
Settings | vapor or sublimation pressure [kPa]
274.15 K | 0.671
276.15 K | 0.778
279.15 K | 0.956
282.15 K | 1.171
285.15 K | 1.428
288.15 K | 1.739
291.15 K | 2.103
294.15 K | 2.525
297.15 K | 3.035
300.15 K | 3.62
303.15 K | 4.299
304.45 K | 4.659
306.15 K | 5.104
308.55 K | 5.85
313.45 K | 7.631
318.15 K | 9.698
323.45 K | 12.68
328.65 K | 16.35
333.15 K | 20.22
337.45 K | 24.61
345.65 K | 35.27
353.85 K | 49.37
364.35 K | 74.26
372.15 K | 99.51
